The assay relates to HCT116. In words: In vitro cytotoxicity measured by the cell colony formation assay. The conditions noted are these: HCT116 cells; incubated with drugs for 72 h at 37° C.; colonies counted after 7 days; ID50 = drug concentration producing 50% inhibition of colony formation; read-out: IN VITRO ID 50 (nm) HCT116. Format: cell-based. As to the method: In Vitro Cytotoxicity Measured by the Cell Colony Formation Assay
Four hundred cells (HCT116) were plated in 60 mm Petri dishes containing 2.7 mL of medium (modified McCoy's 5a medium containing 10% fetal bovine serum and 100 units/mL penicillin and 100 µg/mL streptomycin). The cells were incubated in a CO2 incubator at 37° C. for 5 h for attachment to the bottom of Petri dishes. The compounds identified in Example 2 were made up fresh in medium at ten times the final concentration, and then 0.3 mL of this stock solution was added to the 2.7 mL of medium in the dish. The cells were then incubated with drugs for 72 h at 37° C. At the end of incubation the drug-containing media were decanted, the dishes were rinsed with 4 mL of Hank's Balance Salt Solution (HBSS), 5 mL of fresh medium was added, and the dishes were returned to the incubator for colony formation. The cell colonies were counted using a colony counter after incubation for 7 days.
For `CC(=O)OCC(=O)O[C@H]1C[C@H]2OC[C@@]2(OC(C)=O)C2[C@H](OC(=O)c3ccccc3)[C@]3(O)C[C@H](OC(=O)[C@H](O)[C@@H](NC(=O)C=C(C)C)c4ccco4)C(C)=C([C@@H](O)C(=O)[C@@]21C)C3(C)C` (some centres unmarked) [Compound 5544], the IC50 was under 1 nM.

Regarding `CCC(C)(C)OC(=O)N[C@@H](c1ccco1)[C@@H](O)C(=O)O[C@H]1C[C@@]2(O)[C@@H](OC(=O)c3ccccc3)C3[C@](C)(C(=O)[C@H](O)C(=C1C)C2(C)C)[C@@H](OC(=O)COC(C)=O)C[C@H]1OC[C@@]31OC(C)=O` (some centres unmarked) [Compound 6353], the IC50 is under 1 nM.

For `C/C=C/C(=O)N[C@@H](c1ccco1)[C@@H](O)C(=O)O[C@H]1C[C@@]2(O)[C@@H](OC(=O)c3ccccc3)C3[C@](C)(C(=O)[C@H](O)C(=C1C)C2(C)C)[C@@H](OC(=O)COc1ccccc1)C[C@H]1OC[C@@]31OC(C)=O` (some centres unmarked) [Compound 5811], the IC50 is under 1 nM.

As for `CC(=O)OCC(=O)O[C@H]1C[C@H]2OC[C@@]2(OC(C)=O)C2[C@H](OC(=O)c3ccccc3)[C@]3(O)C[C@H](OC(=O)[C@H](O)[C@@H](NC(=O)OC(C)(C)C)c4ccco4)C(C)=C([C@@H](O)C(=O)[C@@]21C)C3(C)C` (some centres unmarked) [Compound 5622], the IC50 is under 1 nM.

Regarding `C/C=C/C(=O)N[C@@H](c1ccco1)[C@@H](O)C(=O)O[C@H]1C[C@@]2(O)[C@@H](OC(=O)c3ccccc3)C3[C@](C)(C(=O)[C@H](O)C(=C1C)C2(C)C)[C@@H](OC(=O)COC)C[C@H]1OC[C@@]31OC(C)=O` (some centres unmarked) [Compound 5835], the IC50 was under 1 nM.

As to `CSCC(=O)O[C@H]1C[C@H]2OC[C@@]2(OC(C)=O)C2[C@H](OC(=O)c3ccccc3)[C@]3(O)C[C@H](OC(=O)[C@H](O)[C@@H](NC(=O)OC(C)(C)C)c4ccco4)C(C)=C([C@@H](O)C(=O)[C@@]21C)C3(C)C` (some centres unmarked) [Compound 5600], the IC50 was under 1 nM.

For `CCC(C)(C)OC(=O)NC(c1ccco1)C(O)C(=O)OC1CC2(O)C(OC(=O)c3ccccc3)C3C4(OC(C)=O)COC4CC(OC(=O)COC)C3(C)C(=O)C(O)C(=C1C)C2(C)C` (centres unmarked) [Compound 6226, N-Debenzoyl-N-tert-amyloxycarbonyl-3′-desphenyl-3′-(2-furyl)-10-deacetyl-7-methoxyacetyl taxol], the IC50 is under 1 nM.

In the case of `COCC(=O)O[C@H]1C[C@H]2OC[C@@]2(OC(C)=O)C2[C@H](OC(=O)c3ccccc3)[C@]3(O)C[C@H](OC(=O)[C@H](O)[C@@H](NC(=O)C=C(C)C)c4ccco4)C(C)=C([C@@H](O)C(=O)[C@@]21C)C3(C)C` (some centres unmarked) [Compound 5474], the IC50 is under 1 nM.

Regarding `CC(=O)O[C@@]12CO[C@@H]1C[C@H](OC(=O)COc1ccccc1)[C@@]1(C)C(=O)[C@H](O)C3=C(C)[C@@H](OC(=O)[C@H](O)[C@@H](NC(=O)C=C(C)C)c4ccco4)C[C@@](O)([C@@H](OC(=O)c4ccccc4)C12)C3(C)C` (some centres unmarked) [Compound 5555], the IC50 was under 1 nM.

`CC(=O)O[C@@]12CO[C@@H]1C[C@H](OC(=O)COc1ccccc1)[C@@]1(C)C(=O)[C@H](O)C3=C(C)[C@@H](OC(=O)[C@H](O)[C@@H](NC(=O)OC(C)(C)C)c4ccco4)C[C@@](O)([C@@H](OC(=O)c4ccccc4)C12)C3(C)C` (some centres unmarked) [Compound 5616]: the IC50 was under 1 nM.

For the molecule `COCC(=O)O[C@H]1C[C@H]2OC[C@@]2(OC(C)=O)C2[C@H](OC(=O)c3ccccc3)[C@]3(O)C[C@H](OC(=O)[C@H](O)[C@@H](NC(=O)OC(C)(C)C)c4ccco4)C(C)=C([C@@H](O)C(=O)[C@@]21C)C3(C)C` (some centres unmarked) [Compound 5445], the IC50 was under 1 nM.

The values are drawn from patent US7183312B2, “Taxanes having a C7 heterosubstituted acetate substituent” (FSU Research Foundation, Inc., priority 2000, dated 2007).
